Laboratory results: PubChem BioAssay (NCI)
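Following 48 hours of exposure in 96-well plates, responses at five concentrations were used to interpolate endpoints linearly. TGI: total growth inhibition.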

Key:
Assay in all cases: DTP human tumour cell line panel, 48 h
OVCAR-4 ovarian = system: OVCAR-4 ovarian
MOLT-4 leukemia = system: MOLT-4 leukemia
HL-60(TB) leukemia = system: HL-60(TB) leukemia
SNB-75 CNS = system: SNB-75 CNS
786-0 renal = system: 786-0 renal
HCT-15 colon = system: HCT-15 colon
COLO 205 colon = system: COLO 205 colon
OVCAR-8 ovarian = system: OVCAR-8 ovarian
NCI-H460 lung = system: NCI-H460 lung
CCRF-CEM leukemia = system: CCRF-CEM leukemia
K-562 leukemia = system: K-562 leukemia
TK-10 renal = system: TK-10 renal
MDA-MB-231 breast = system: MDA-MB-231 breast
UACC-257 melanoma = system: UACC-257 melanoma
UACC-62 melanoma = system: UACC-62 melanoma
MDA-MB-435 = system: MDA-MB-435
HT29 colon = system: HT29 colon
SW-620 colon = system: SW-620 colon
NCI-H522 lung = system: NCI-H522 lung

CCOc1cc(/C=N\O)cc(/C=N/O)c1O
TGI (OVCAR-4 ovarian): > 100 µM | TGI (MOLT-4 leukemia): 99 µM | TGI (HL-60(TB) leukemia): > 100 µM | TGI (SNB-75 CNS): 57.6 µM | TGI (786-0 renal): > 100 µM | TGI (HCT-15 colon): 92.6 µM | TGI (COLO 205 colon): 50.1 µM | TGI (OVCAR-8 ovarian): 66.6 µM | TGI (NCI-H460 lung): > 100 µM | TGI (CCRF-CEM leukemia): > 100 µM | TGI (K-562 leukemia): > 100 µM | TGI (TK-10 renal): > 100 µM | TGI (MDA-MB-231 breast): > 100 µM | TGI (UACC-257 melanoma): > 100 µM | TGI (UACC-62 melanoma): > 100 µM | TGI (MDA-MB-435): > 100 µM | TGI (HT29 colon): > 100 µM | TGI (SW-620 colon): > 100 µM

NC(CCCNc1ccc(O)cc1)C(=O)O (stereo unspecified)
TGI (OVCAR-4 ovarian): 31.7 µM | TGI (MOLT-4 leukemia): 56.9 µM | TGI (HL-60(TB) leukemia): 58.3 µM | TGI (SNB-75 CNS): > 100 µM | TGI (786-0 renal): 31.5 µM | TGI (HCT-15 colon): > 60.7 µM | TGI (COLO 205 colon): > 90.3 µM | TGI (OVCAR-8 ovarian): > 62.2 µM | TGI (NCI-H522 lung): > 100 µM | TGI (NCI-H460 lung): > 100 µM | TGI (CCRF-CEM leukemia): > 71.1 µM | TGI (K-562 leukemia): > 72.1 µM | TGI (TK-10 renal): 97.7 µM | TGI (UACC-257 melanoma): > 70.5 µM | TGI (UACC-62 melanoma): 38.2 µM | TGI (HT29 colon): > 100 µM | TGI (SW-620 colon): 42.7 µM

Clc1ccc(C2ON=C(c3ccccc3)N2C23CC4CC(CC(C4)C2)C3)cc1Cl (stereo unspecified)
TGI (OVCAR-4 ovarian): > 10 µM | TGI (MOLT-4 leukemia): > 10 µM | TGI (SNB-75 CNS): > 10 µM | TGI (786-0 renal): > 10 µM | TGI (HCT-15 colon): > 10 µM | TGI (COLO 205 colon): > 10 µM | TGI (OVCAR-8 ovarian): > 10 µM | TGI (NCI-H522 lung): > 10 µM | TGI (NCI-H460 lung): > 10 µM | TGI (CCRF-CEM leukemia): > 10 µM | TGI (K-562 leukemia): > 10 µM | TGI (TK-10 renal): > 10 µM | TGI (MDA-MB-231 breast): > 10 µM | TGI (UACC-257 melanoma): > 10 µM | TGI (UACC-62 melanoma): > 10 µM | TGI (MDA-MB-435): > 10 µM | TGI (HT29 colon): > 10 µM | TGI (SW-620 colon): > 10 µM

Cn1cc(S(=O)(=O)NC(=O)Nc2ccc(Cl)cc2)c(=O)c2ccc(Cl)cc21
TGI (OVCAR-4 ovarian): > 100 µM | TGI (MOLT-4 leukemia): > 100 µM | TGI (SNB-75 CNS): > 100 µM | TGI (786-0 renal): > 100 µM | TGI (HCT-15 colon): > 100 µM | TGI (OVCAR-8 ovarian): > 100 µM | TGI (NCI-H522 lung): 41.4 µM | TGI (NCI-H460 lung): > 100 µM | TGI (CCRF-CEM leukemia): > 100 µM | TGI (K-562 leukemia): > 100 µM | TGI (TK-10 renal): > 100 µM | TGI (MDA-MB-231 breast): > 100 µM | TGI (UACC-257 melanoma): > 100 µM | TGI (UACC-62 melanoma): > 100 µM | TGI (MDA-MB-435): > 100 µM | TGI (HT29 colon): > 100 µM | TGI (SW-620 colon): > 100 µM

S=C(Nc1ccc(Cl)cc1)c1ccc(CN2CCCCC2)s1
TGI (OVCAR-4 ovarian): 80.7 µM | TGI (MOLT-4 leukemia): 30.5 µM | TGI (HL-60(TB) leukemia): 6.97 µM | TGI (786-0 renal): > 100 µM | TGI (HCT-15 colon): > 100 µM | TGI (COLO 205 colon): 14.2 µM | TGI (OVCAR-8 ovarian): 27.1 µM | TGI (NCI-H522 lung): 75 µM | TGI (NCI-H460 lung): 21.9 µM | TGI (CCRF-CEM leukemia): 12.5 µM | TGI (K-562 leukemia): 13.9 µM | TGI (UACC-257 melanoma): > 100 µM | TGI (UACC-62 melanoma): 21.7 µM | TGI (MDA-MB-435): 67.6 µM | TGI (HT29 colon): 19.5 µM | TGI (SW-620 colon): > 100 µM

CCOC(=O)CCC(NC(=O)C(CCC(=O)OCC)NC(=O)C(Cc1ccc([N+](=O)[O-])cc1)NC(C)=O)C(=O)NNC(=O)OC(C)(C)C (stereo unspecified)
TGI (MOLT-4 leukemia): > 100 µM | TGI (HL-60(TB) leukemia): > 100 µM | TGI (SNB-75 CNS): > 100 µM | TGI (786-0 renal): > 100 µM | TGI (HCT-15 colon): > 100 µM | TGI (COLO 205 colon): > 100 µM | TGI (OVCAR-8 ovarian): > 100 µM | TGI (NCI-H460 lung): > 100 µM | TGI (K-562 leukemia): > 100 µM | TGI (TK-10 renal): > 100 µM | TGI (MDA-MB-231 breast): > 100 µM | TGI (UACC-257 melanoma): > 100 µM | TGI (UACC-62 melanoma): > 100 µM | TGI (HT29 colon): > 100 µM | TGI (SW-620 colon): > 100 µM

CC(/C=C/c1ccccc1)=N\N=C(C)\C=C\c1ccccc1
TGI (OVCAR-4 ovarian): > 100 µM | TGI (MOLT-4 leukemia): > 100 µM | TGI (HL-60(TB) leukemia): > 100 µM | TGI (SNB-75 CNS): > 100 µM | TGI (786-0 renal): > 100 µM | TGI (HCT-15 colon): > 100 µM | TGI (OVCAR-8 ovarian): > 100 µM | TGI (NCI-H522 lung): > 100 µM | TGI (NCI-H460 lung): > 100 µM | TGI (CCRF-CEM leukemia): > 100 µM | TGI (K-562 leukemia): > 100 µM | TGI (TK-10 renal): > 100 µM | TGI (UACC-257 melanoma): > 100 µM | TGI (HT29 colon): > 100 µM | TGI (SW-620 colon): > 100 µM
